Test results taken from patent publication US20090318565A1, “Novel Compositions for the Enhancement of the Anti-oxidant Potential of Hydrogenated Curcuminoids or Combinations Thereof” (priority 2008, published 2009).
Values after ≈ are worked out from the molar mass of the structure shown.

Legend:
[1] = system: Swiss 3T3 mouse fibroblast cells; experiment: ROS scavenging assay (DCFH-DA dye, oxidation initiated by FeSO4); assay type: cell-based; details: for IC50: Mus musculus, Swiss-3T3, DCFH-DA, FeSO4, 1 hr at 37° C., fluorescence 485/520 nm, called SC50, read-out: % Inhibition (IC50 μg/ml) ROS scavenging in Swiss 3T3 fibroblast cell line
Procedure: The DPPH free radical scavenging activity is studied based on the stable free radical 1,1-diphenyl-2-picryl hydrazyl radical (DPPH) which, in presence of an antioxidant in organic/aqueous organic media is bleached and the decrease of absorbance of DPPH is measured spectrophotometrically at 516 nm. The assay mixture containing DPPH methanolic solution & methanolic solutions of various concentrations of the antioxidant is incubated at 37 degree C. for 30 minutes. The reduction in absorbance is measured spectrophotometrically at 516 nm. The free radical scavenging activity is expressed as SC50, the concentration of the sample required for 50% of the free radical to be scavenged. The ROS scavenging assay is based on a cell permeable, non-fluorescent dye, de-esterified DCFH-DA (dichloro fluorescein diacetate) being converted to dichlorofluorescein upon oxidation by the reactive oxygen species. […] Swiss 3T3 mouse fibroblast cells are cultured in DMEM medium with 10% FBS. 1×10^5 cells per well are plated into a 96 well black plate. After treatment with varying concentrations of the samples, the cells are exposed to DCFH-DA dye and oxidation initiated by FeSO4. […] The fluorescence intensity is directly proportional to the ROS scavenging activity of the samples. The activity is expressed as SC50 which is the concentration required for 50% scavenging of ROS.

[2] = DPPH free radical scavenging assay; assay type: biochemical; details: methanolic solution, 37 degree C. for 30 minutes, absorbance at 516 nm; called SC50
Procedure: The DPPH free radical scavenging activity is studied based on the stable free radical 1,1-diphenyl-2-picryl hydrazyl radical (DPPH) which, in presence of an antioxidant in organic/aqueous organic media is bleached and the decrease of absorbance of DPPH is measured spectrophotometrically at 516 nm. The assay mixture containing DPPH methanolic solution & methanolic solutions of various concentrations of the antioxidant is incubated at 37 degree C. for 30 minutes. The reduction in absorbance is measured spectrophotometrically at 516 nm. The free radical scavenging activity is expressed as SC50, the concentration of the sample required for 50% of the free radical to be scavenged. The ROS scavenging assay is based on a cell permeable, non-fluorescent dye, de-esterified DCFH-DA (dichloro fluorescein diacetate) being converted to dichlorofluorescein upon oxidation by the reactive oxygen species. The scavenging activity of sample is indicated by the decrease in fluorescence (wavelength 485/520 nm). Swiss 3T3 mouse fibroblast cells are cultured in DMEM medium with 10% FBS. […] After incubation for 1 hr at 37° C., the fluorescence reading is taken at wavelength 485/520 nm (Fluostar optima microplate reader). The fluorescence intensity is directly proportional to the ROS scavenging activity of the samples. The activity is expressed as SC50 which is the concentration required for 50% scavenging of ROS.

| Structure (SMILES) | pro-oxidant properties of hydrogenated derivative against bisdemethoxycurcumin ([1]; upon hydrogenation) | IC50 [1] | anti-oxidant activity of hydrogenated derivative against curcumin ([1]; upon hydrogenation) | enhancement of anti-oxidant properties upon hydrogenation (ROS scavenging activity) ([1]; hydrogenated derivative against demethoxycurcumin) | SC50 [2] |
| --- | --- | --- | --- | --- | --- |
| O=C(CCc1ccc(O)cc1)CC(=O)CCc1ccc(O)cc1 [STR#1, 1,7-Bis(4-hydroxyphenyl)-3,5-heptanedione] | enhanced | – | – | – | – |
| COc1cc(CCC(=O)CC(=O)CCc2ccc(O)c(OC)c2)ccc1O [STR#II, 1,7-Bis(4-hydroxy-3-methoxyphenyl)-3,5-heptanedione] | – | 1.35 µg/mL (≈ 3.62 µM) | enhanced | – | – |
| COc1cc(CCC(=O)CC(=O)CCc2ccc(O)cc2)ccc1O [STR#V, 1-(4-hydroxy-3-methoxyphenyl)-7-(4-hydroxyphenyl)-3,5-heptanedione] | – | 4.5 µg/mL (≈ 13.1 µM) | – | about 10 fold | 3.0 µg/mL |
